Results reported in ChEMBL document CHEMBL1148417, “Thiol-based SAHA analogues as potent histone deacetylase inhibitors” (Bioorg Med Chem Lett, 2004).

Target: Histone deacetylase
Type: protein assay
Description: In vitro inhibitory activity against human histone deacetylase (HDAC) using HeLa nuclear extract

| SMILES | IC50 [µM] |
| --- | --- |
| CSCCCCCCC(=O)Nc1ccccc1 | > 100 |
| O=C(CCCCCCNCCS)Nc1ccccc1.O=C(O)C(F)(F)F | > 100 |
